Laboratory results from patent publication US11358957B2, “Microbiocidal oxadiazole derivatives” (SYNGENTA PARTICIPATIONS AG, priority 2017, dated 2022).

What was measured:
Phakopsora pachyrhizi = assay: Fungicidal activity against Phakopsora pachyrhizi / soybean / leaf disc preventative (Asian soybean rust); assay type: in vivo; conditions: foliar, 200 ppm in the applied formulation, soybean leaf disks, compared to untreated, read-out: disease control
Procedure: Leaf disks or leaf segments of various plant species are cut from plants grown in a greenhouse. The cut leaf disks or segments are placed in multiwell plates (24-well format) onto water agar. The leaf disks are sprayed with a test solution before (preventative) or after (curative) inoculation. Compounds to be tested are prepared as DMSO solutions (max. 10 mg/mL) which are diluted to the appropriate concentration with 0.025% Tween20 just before spraying. The inoculated leaf disks or segments are incubated under defined conditions (temperature, relative humidity, light, etc.) according to the respective test system. A single evaluation of disease level is carried out 3 to 14 days after inoculation, depending on the pathosystem. Percent disease control relative to the untreated check leaf disks or segments is then calculated. Soybean leaf disks are placed on water agar in multiwell plates (24-well format) and sprayed with the formulated test compound diluted in water. One day after application leaf discs are inoculated by spraying a spore suspension on the lower leaf surface. After an incubation period in a climate cabinet of 24-36 hours in darkness at 20° C. and 75% rh leaf disc are kept at 20° C. with 12 h light/day and 75% rh. The activity of a compound is assessed as percent disease control compared to untreated when an appropriate level of disease damage appears in untreated check leaf disks (12 to 14 days after application). The following compounds at 200 ppm in the applied formulation give at least 80% disease control in this test when compared to untreated control leaf disks under the same conditions, which show extensive disease development.

[1] = test system: Puccinia recondita f. Sp. Tritici; assay: Fungicidal activity against Puccinia recondita f. sp. tritici / wheat / leaf disc curative (brown rust); assay type: in vivo; conditions: foliar, 24 h, 200 ppm in the applied formulation, wheat leaf segments cv. Kanzler, curative (applied 1 day after inoculation), compared to untreated, read-out: disease control
Procedure: Leaf disks or leaf segments of various plant species are cut from plants grown in a greenhouse. The cut leaf disks or segments are placed in multiwell plates (24-well format) onto water agar. The leaf disks are sprayed with a test solution before (preventative) or after (curative) inoculation. Compounds to be tested are prepared as DMSO solutions (max. 10 mg/mL) which are diluted to the appropriate concentration with 0.025% Tween20 just before spraying. The inoculated leaf disks or segments are incubated under defined conditions (temperature, relative humidity, light, etc.) according to the respective test system. A single evaluation of disease level is carried out 3 to 14 days after inoculation, depending on the pathosystem. Percent disease control relative to the untreated check leaf disks or segments is then calculated. Wheat leaf segments cv. Kanzler are placed on agar in multiwell plates (24-well format). The leaf segments are then inoculated with a spore suspension of the fungus. Plates were stored in darkness at 19C and 75% relative humidity. The formulated test compound diluted in water was applied 1 day after inoculation. The leaf segments were incubated at 19° C. and 75% relative humidity under a light regime of 12 hours light/12 hours darkness in a climate cabinet and the activity of a compound was assessed as percent disease control compared to untreated when an appropriate level of disease damage appears in untreated check leaf segments (6 to 8 days after application). The following compounds at 200 ppm in the applied formulation give at least 80% disease control in this test when compared to untreated control leaf disks under the same conditions, which show extensive disease development.

[2] = test system: Glomerella lagenarium (Colletotrichum lagenarium); assay: Fungicidal activity against Glomerella lagenarium (Colletotrichum lagenarium) liquid culture / cucumber / preventative (anthracnose); assay type: cell-based; conditions: Colletotrichum orbiculare; 20 ppm in the applied formulation; liquid culture (PDB), inhibition of growth measured photometrically 3 to 4 days after application; compared to untreated; read-out: disease control
In short: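 Conidia from cryogenic storage mixed into potato dextrose broth and added to compound in DMSO in microtiter plates. Incubated at 24° C.; growth inhibition read photometrically 3 to 4 days after application. Disease control expressed relative to untreated control, with compound at 20 ppm in the applied formulation.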

[3] = test system: Puccinia recondita f. Sp. Tritici; assay: Fungicidal activity against Puccinia recondita f. sp. tritici / wheat / leaf disc preventative (brown rust); assay type: in vivo; conditions: foliar, 200 ppm in the applied formulation, wheat leaf segments cv. Kanzler, preventative (inoculated 1 day after application), compared to untreated, read-out: disease control
In short: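 Segments of wheat cv. Kanzler on water agar were sprayed with compound and inoculated with spores 1 day later. They were kept at 19 °C, 75% rh and 12 h light/12 h dark. Percent disease control versus untreated was scored 7–9 days after application; compounds were tested at 200 ppm.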

CCCOC(=O)c1ccnn1Cc1ccc(-c2noc(C(F)(F)F)n2)s1 [Compound 1.47, propyl 2-[[5-[5-(trifluoromethyl)-1,2,4-oxadiazol-3-yl]-2-thienyl]methyl]pyrazole-3-carboxylate]
≥ 80%: pest or weed control at 200 ppm (Phakopsora pachyrhizi) | pest or weed control at 200 ppm [1] | inhibition of growth at 20 ppm [2] | pest or weed control at 200 ppm [3]

COC(=O)c1ncnn1Cc1ccc(-c2noc(C(F)(F)F)n2)s1 [Compound 1.55, methyl 2-[[5-[5-(trifluoromethyl)-1,2,4-oxadiazol-3-yl]-2-thienyl]methyl]-1,2,4-triazole-3-carboxylate]
≥ 80%: pest or weed control at 200 ppm (Phakopsora pachyrhizi) | pest or weed control at 200 ppm [1] | inhibition of growth at 20 ppm [2] | pest or weed control at 200 ppm [3]

CC(c1ccc(-c2noc(C(F)(F)F)n2)s1)N1CCCCC1=O (stereo not drawn) [Compound 1.34, 1-[1-[5-[5-(trifluoromethyl)-1,2,4-oxadiazol-3-yl]-2-thienyl]ethyl]piperidin-2-one]
≥ 80%: pest or weed control at 200 ppm (Phakopsora pachyrhizi) | pest or weed control at 200 ppm [1] | inhibition of growth at 20 ppm [2] | pest or weed control at 200 ppm [3]

Cc1cc(C)n(Cc2ccc(-c3noc(C(F)(F)F)n3)s2)n1 [Compound 1.21, 3-[5-[(3,5-dimethylpyrazol-1-yl)methyl]-2-thienyl]-5-(trifluoromethyl)-1,2,4-oxadiazole]
≥ 80%: pest or weed control at 200 ppm (Phakopsora pachyrhizi) | pest or weed control at 200 ppm [1] | inhibition of growth at 20 ppm [2] | pest or weed control at 200 ppm [3]

COCc1nn(Cc2ccc(-c3noc(C(F)(F)F)n3)s2)cc1C(=O)OC [Compound 1.19, methyl 3-(methoxymethyl)-1-[[5-[5-(trifluoromethyl)-1,2,4-oxadiazol-3-yl]-2-thienyl]methyl]pyrazole-4-carboxylate]
≥ 80%: pest or weed control at 200 ppm (Phakopsora pachyrhizi) | pest or weed control at 200 ppm [1] | inhibition of growth at 20 ppm [2] | pest or weed control at 200 ppm [3]

Nc1nc(C(F)F)nn1Cc1ccc(-c2noc(C(F)(F)F)n2)s1 [Compound 1.14, 5-(difluoromethyl)-2-[[5-[5-(trifluoromethyl)-1,2,4-oxadiazol-3-yl]-2-thienyl]methyl]-1,2,4-triazol-3-amine]
≥ 80%: pest or weed control at 200 ppm (Phakopsora pachyrhizi) | pest or weed control at 200 ppm [1] | inhibition of growth at 20 ppm [2] | pest or weed control at 200 ppm [3]

COC(=O)c1ccnn1Cc1ccc(-c2noc(C(F)(F)F)n2)s1 [Compound 1.54, methyl 2-[[5-[5-(trifluoromethyl)-1,2,4-oxadiazol-3-yl]-2-thienyl]methyl]pyrazole-3-carboxylate]
≥ 80%: pest or weed control at 200 ppm (Phakopsora pachyrhizi) | pest or weed control at 200 ppm [1] | inhibition of growth at 20 ppm [2] | pest or weed control at 200 ppm [3]

Cc1cccc(=O)n1C(C)c1ccc(-c2noc(C(F)(F)F)n2)s1 (stereo not drawn) [Compound 1.33, 6-methyl-1-[1-[5-[5-(trifluoromethyl)-1,2,4-oxadiazol-3-yl]-2-thienyl]ethyl]pyridin-2-one]
≥ 80%: pest or weed control at 200 ppm (Phakopsora pachyrhizi) | pest or weed control at 200 ppm [1] | inhibition of growth at 20 ppm [2] | pest or weed control at 200 ppm [3]

CCOC(=O)c1cnn(C(C)c2ccc(-c3noc(C(F)(F)F)n3)s2)c1 (stereo not drawn) [Compound 1.30, ethyl 1-[1-[5-[5-(trifluoromethyl)-1,2,4-oxadiazol-3-yl]-2-thienyl]ethyl]pyrazole-4-carboxylate]
≥ 80%: pest or weed control at 200 ppm (Phakopsora pachyrhizi) | pest or weed control at 200 ppm [1] | inhibition of growth at 20 ppm [2] | pest or weed control at 200 ppm [3]

CN(C)C(=O)c1ccnn1Cc1ccc(-c2noc(C(F)(F)F)n2)s1 [Compound 1.58, N,N-dimethyl-2-[[5-[5-(trifluoromethyl)-1,2,4-oxadiazol-3-yl]-2-thienyl]methyl]pyrazole-3-carboxamide]
≥ 80%: pest or weed control at 200 ppm (Phakopsora pachyrhizi) | pest or weed control at 200 ppm [1] | pest or weed control at 200 ppm [3]

FC(F)(F)c1nc(-c2ccc(Cn3cncn3)s2)no1 [Compound 1.2, 3-[5-(1,2,4-triazol-1-ylmethyl)-2-thienyl]-5-(trifluoromethyl)-1,2,4-oxadiazole]
≥ 80%: pest or weed control at 200 ppm [1] | inhibition of growth at 20 ppm [2] | pest or weed control at 200 ppm [3]

C=CCNC(=O)c1ccn(Cc2ccc(-c3noc(C(F)(F)F)n3)s2)n1 [Compound 1.122, N-allyl-1-[[5-[5-(trifluoromethyl)-1,2,4-oxadiazol-3-yl]-2-thienyl]methyl]pyrazole-3-carboxamide]
≥ 80%: pest or weed control at 200 ppm [1] | inhibition of growth at 20 ppm [2] | pest or weed control at 200 ppm [3]

CON(C)C(=O)c1cnn(C(C)c2ccc(-c3noc(C(F)(F)F)n3)s2)c1 (stereo not drawn) [Compound 1.68, N-methoxy-N-methyl-1-[1-[5-[5-(trifluoromethyl)-1,2,4-oxadiazol-3-yl]-2-thienyl]ethyl]pyrazole-4-carboxamide]
≥ 80%: pest or weed control at 200 ppm [1] | inhibition of growth at 20 ppm [2] | pest or weed control at 200 ppm [3]

Cc1cc(N)n(Cc2ccc(-c3noc(C(F)(F)F)n3)s2)n1 [Compound 1.16, 5-methyl-2-[[5-[5-(trifluoromethyl)-1,2,4-oxadiazol-3-yl]-2-thienyl]methyl]pyrazol-3-amine]
≥ 80%: pest or weed control at 200 ppm [1] | inhibition of growth at 20 ppm [2] | pest or weed control at 200 ppm [3]

CCC(C)NC(=O)c1ncn(Cc2ccc(-c3noc(C(F)(F)F)n3)s2)n1 (stereo not drawn) [Compound 1.144, N-sec-butyl-1-[[5-[5-(trifluoromethyl)-1,2,4-oxadiazol-3-yl]-2-thienyl]methyl]-1,2,4-triazole-3-carboxamide]
≥ 80%: pest or weed control at 200 ppm [1] | inhibition of growth at 20 ppm [2] | pest or weed control at 200 ppm [3]

CON(C)C(=O)c1cnn(Cc2ccc(-c3noc(C(F)(F)F)n3)s2)c1 [Compound 1.103, N-methoxy-N-methyl-1-[[5-[5-(trifluoromethyl)-1,2,4-oxadiazol-3-yl]-2-thienyl]methyl]pyrazole-4-carboxamide]
≥ 80%: pest or weed control at 200 ppm [1] | inhibition of growth at 20 ppm [2] | pest or weed control at 200 ppm [3]

CC(C)(C)CNC(=O)c1cnn(Cc2ccc(-c3noc(C(F)(F)F)n3)s2)c1 [Compound 1.101, N-(2,2-dimethylpropyl)-1-[[5-[5-(trifluoromethyl)-1,2,4-oxadiazol-3-yl]-2-thienyl]methyl]pyrazole-4-carboxamide]
≥ 80%: pest or weed control at 200 ppm [1] | inhibition of growth at 20 ppm [2] | pest or weed control at 200 ppm [3]

CCNC(=O)c1cnn(Cc2ccc(-c3noc(C(F)(F)F)n3)s2)c1 [Compound 1.106, N-ethyl-1-[[5-[5-(trifluoromethyl)-1,2,4-oxadiazol-3-yl]-2-thienyl]methyl]pyrazole-4-carboxamide]
≥ 80%: pest or weed control at 200 ppm [1] | inhibition of growth at 20 ppm [2] | pest or weed control at 200 ppm [3]
